Tests used:
[1] = biological target: T1, mature p20 forms of caspase-7 (Homo sapiens, UniProt P55210); test: Inhibitor specificity in hypotonic 293 extracts, mature p20 caspase-7; format: biochemical; settings: inhibitor 20 μM for 5 min, then KMB01 30 min
T1 construct: p20 is mature large subunit of caspase-7 with N-terminal peptide removed; processing of the zymogen to the large and small subunits by activity of the initiator caspases; endogenous in cells
T1 sequence (P55210 24-198 limits assumed): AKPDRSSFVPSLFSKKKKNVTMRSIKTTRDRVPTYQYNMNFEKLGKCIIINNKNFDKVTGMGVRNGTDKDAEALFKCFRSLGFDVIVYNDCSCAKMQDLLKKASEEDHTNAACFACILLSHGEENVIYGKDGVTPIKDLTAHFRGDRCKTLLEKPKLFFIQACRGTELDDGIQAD
T1 sequence (P55210 207-303 limits assumed): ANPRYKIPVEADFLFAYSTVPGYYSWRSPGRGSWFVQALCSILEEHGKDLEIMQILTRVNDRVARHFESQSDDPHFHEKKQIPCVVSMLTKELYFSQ
Text: (§1) FIGS. 6 A-E illustrate that full-length active caspase-7 has unique inhibitor specificity and is processed to mature forms by downstream executioner caspases. (A) The caspase-3 specific inhibitor causes accumulation of a catalytically active full-length form of caspase-7. Cytosolic extracts from 293 cells were activated with cytochrome c/dATP for the indicated times followed by labeling with KMB01 (left panel) and western blotting with a caspase-7 specific antibody (right panel) as in FIG. 5A. […] (B) The exact same experiment as (A) except extracts from MCF-7 cells were used in place of 293 extracts. (**) indicates forms of caspase-7 that are likely a result of the alternative transcription start site at methionine-45 (C) Quantification of the relative activity of FL-C7 in uninhibited 293 extracts (from FIG. 5A), AB06 treated 293 extracts (from (A)) and uninhibited MCF-7 extracts (from (B)) (D) Inhibitor specificity of full-length and processed forms of caspase-7. Extracts (293) were activated for 5 min with cytochrome c/dATP and then incubated with NP-capped AOMK inhibitors containing the indicated primary amino acid sequences for 5 minutes before KMB01 was added and allowed to label residual caspase active sites for 30 minutes. Samples were analyzed by SDS-PAGE followed by biotin blotting using strepavidin-HRP (left panel) or western blotting for caspase-7 (right panel). Identities of labeled caspases are indicated. (E) Specificity of AB06 after prolonged incubation times. Extracts were treated with AB06 at the indicated concentrations simultaneously with cytochrome c/dATP. At the indicated times after activation, samples were labeled with KMB01 (10 μM) for 30 minutes. Labeled caspases were resolved by SDS-PAGE analysis followed by biotin blotting using strepavidin-HRP.
An additional surprising finding from the inhibitor studies was the overall lack of inhibition of the FL-C7 species by AB06 relative to mature p20 forms of caspase-7. This was surprising since the sequence of AB06 (NP-D3VD-AOMK) differs from the KMB01 probe sequence (Bio-EVD-AOMK) only at the P3 residue. […] We therefore wanted to use inhibitors to compare the ability of different P3 elements to bind to full-length and p20 mature forms of caspase-7. […] Samples were analyzed for active site labeling and protein levels of both full-length and p20 forms of caspase-7 were monitored by western blot (FIG. 6D).
(§2) Hypotonic 293 extracts (73 μg of total protein) were activated at 37° C. for 5 minutes as described above. […] Samples (13.5 μg total protein) were analyzed by SDS-PAGE and biotin blotting as described above

[2] = biological target: T2, FL-C7 (full-length caspase-7) (Homo sapiens, UniProt P55210); test: Inhibitor specificity in hypotonic 293 extracts, full-length caspase-7; format: biochemical; settings: inhibitor 20 μM for 5 min, then KMB01 30 min
T2 construct: the p37 band as the full-length caspase-7 with intact N-terminus (FL-C7); endogenous in cells
T2 sequence (P55210 1-303): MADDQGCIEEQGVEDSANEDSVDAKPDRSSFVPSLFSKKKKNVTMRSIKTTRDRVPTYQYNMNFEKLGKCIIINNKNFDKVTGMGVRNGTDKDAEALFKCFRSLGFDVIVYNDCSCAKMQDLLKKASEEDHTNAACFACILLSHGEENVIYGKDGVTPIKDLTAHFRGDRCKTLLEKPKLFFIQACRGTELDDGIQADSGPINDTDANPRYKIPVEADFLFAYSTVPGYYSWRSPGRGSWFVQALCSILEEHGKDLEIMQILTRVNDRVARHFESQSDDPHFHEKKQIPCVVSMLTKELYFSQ
Text: as §1
To further confirm our assignment of the labeled species we treated samples at various activation times with purified recombinant Bir3 domain of XIAP. […]
An additional surprising finding from the inhibitor studies was the overall lack of inhibition of the FL-C7 species by AB06 relative to mature p20 forms of caspase-7. […] Samples were analyzed for active site labeling and protein levels of both full-length and p20 forms of caspase-7 were monitored by western blot (FIG. 6D).
Hypotonic 293 extracts (73 μg of total protein) were activated as described above and allowed to incubate for the indicated times. […] Labeling was carried out for an additional 30 minutes and samples (13.5 μg total protein) were analyzed by SDS-PAGE and biotin blotting as described above.
as §2

Compound	block of KMB01 labeling of mature p20 caspase-7 [1]	inhibition of FL-C7 labeling [2]
Cc1cccc(C)c1C(=O)OCC(=O)[C@H](CC(=O)O)NC(=O)[C@@H](NC(=O)[C@H](CCC(=O)O)NC(=O)[C@H](CC(=O)O)NC(=O)Cc1ccc(O)c([N+](=O)[O-])c1)C(C)C [AB09, Np-D-E- V-D-DMBA]	efficiently blocked labeling	almost totally inhibited
Cc1cccc(C)c1C(=O)OCC(=O)[C@H](CC(=O)O)NC(=O)[C@@H](NC(=O)[C@H](Cc1ccncc1)NC(=O)[C@H](CC(=O)O)NC(=O)Cc1ccc(O)c([N+](=O)[O-])c1)C(C)C [AB06, Np-D-3-V-D-DMBA]	efficiently blocked labeling	relatively insensitive to inhibition

Reference: patent US20100068150A1, “Selective Caspase Inhibitors” (The Board of Trustees of the Leland Stanford Junior …, priority 2006, published 2010)
